In paper PMC6339567 (Analytical chemistry, 2018):

What was measured:
[1] = molecular target: P-gp (Mus musculus, UniProt P21447); experiment: in vitro
[2] = system: confluent monolayers of primary murine colonic epithelial cells; conditions: Figure 4A
[3] = in vitro; conditions: mouse
[4] = system: confluent monolayers of primary murine colonic epithelial cells; type: in vitro ADME, mouse; conditions: upper bound for all monolayers with TEER >300 Ω cm^2 (n=6)

Chain of P-gp (P21447 whole entry): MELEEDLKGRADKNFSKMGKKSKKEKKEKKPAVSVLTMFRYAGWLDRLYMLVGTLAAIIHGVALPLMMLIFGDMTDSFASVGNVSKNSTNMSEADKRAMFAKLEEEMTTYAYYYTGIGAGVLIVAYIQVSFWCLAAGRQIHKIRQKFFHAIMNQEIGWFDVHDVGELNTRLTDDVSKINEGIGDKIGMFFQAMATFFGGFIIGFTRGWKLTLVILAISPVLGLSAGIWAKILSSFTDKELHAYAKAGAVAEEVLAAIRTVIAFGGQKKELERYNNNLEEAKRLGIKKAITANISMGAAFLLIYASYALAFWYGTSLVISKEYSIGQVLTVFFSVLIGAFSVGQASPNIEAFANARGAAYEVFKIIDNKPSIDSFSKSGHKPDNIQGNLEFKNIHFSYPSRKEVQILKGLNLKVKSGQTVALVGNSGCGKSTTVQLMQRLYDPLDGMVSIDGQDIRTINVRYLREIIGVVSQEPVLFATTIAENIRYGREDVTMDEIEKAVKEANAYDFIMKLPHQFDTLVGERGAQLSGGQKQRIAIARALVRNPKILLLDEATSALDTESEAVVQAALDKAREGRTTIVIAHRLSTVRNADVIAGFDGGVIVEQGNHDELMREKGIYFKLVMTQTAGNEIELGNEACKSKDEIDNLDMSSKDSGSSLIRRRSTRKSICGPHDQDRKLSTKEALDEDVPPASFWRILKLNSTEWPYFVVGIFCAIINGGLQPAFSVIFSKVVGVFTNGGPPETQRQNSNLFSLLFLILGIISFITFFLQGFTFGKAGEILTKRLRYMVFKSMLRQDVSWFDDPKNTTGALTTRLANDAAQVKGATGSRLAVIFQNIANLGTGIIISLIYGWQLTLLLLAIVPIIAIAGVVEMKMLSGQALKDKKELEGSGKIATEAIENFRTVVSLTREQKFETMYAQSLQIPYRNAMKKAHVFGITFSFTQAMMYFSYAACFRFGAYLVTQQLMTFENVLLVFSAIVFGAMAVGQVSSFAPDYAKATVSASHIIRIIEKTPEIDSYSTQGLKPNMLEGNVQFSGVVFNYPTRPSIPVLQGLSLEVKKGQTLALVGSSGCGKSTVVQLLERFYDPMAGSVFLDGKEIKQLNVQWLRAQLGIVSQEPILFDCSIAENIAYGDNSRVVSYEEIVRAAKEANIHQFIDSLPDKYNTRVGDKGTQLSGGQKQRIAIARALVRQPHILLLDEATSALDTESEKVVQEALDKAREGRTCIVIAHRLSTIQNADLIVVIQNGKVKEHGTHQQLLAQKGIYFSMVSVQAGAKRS

`COC(=O)c1ccccc1-c1c2ccc(=N)cc-2oc2cc(N)ccc12` [Rh123, rhodamine 123] showed an efflux ratio at 2 h, 10 µM [1] of 7.

In the case of `CC(C)NCC(O)COc1cccc2ccccc12` (stereo not shown) [propranolol], the “permeability across day-5 monolayers (in words)” value [2] is reported as “high Papp” and the Papp at 3 h, 10 µM [3] is reported as 9.69 ×10⁻⁶ cm/s.

With lucifer yellow [LY] the “Papp for LY, all monolayers with TEER >300 Ω cm^2” value [4] was under 0.45 ×10⁻⁶ cm/s.
